Article PMC8345109, “Optimization of New Catalytic Topoisomerase II Inhibitors as an Anti-Cancer Therapy” (Cancers, 2021)
≈ marks a conversion by molar mass, not a printed value. Where two headings read alike, the source gives them in different places.

Legend:
[1] = Solubility by LC/MS/MS; type: physicochemical; conditions: for solubility at 1 h: kinetic from dmso stock
Method: Stock solutions of the tested compounds at 50 mM in dimethyl sulfoxide (DMSO) were diluted 50-fold in methanol (MeOH), Roswell Park Memorial Institute-1640 (RPMI1640), plus 5% charcoal-stripped serum (CSS) from Sigma-Aldrich (media) and phosphate-buffered saline (PBS), and vortexed at room temperature for 1 h at 800 rpm. The resulting solutions were centrifuged at 20,000× g for 5 min, and the saturated supernatants were diluted 40-fold in acetonitrile. The resultant solutions were subjected to LC/MS/MS to determine the solubility.

[2] = molecular target: T1, TOP2A (Homo sapiens, UniProt P11388); test: K-DNA decatenation assay, TOP2A; type: biochemical; conditions: 0.01-200 uM, three biological repeats
T1 sequence (P11388 whole entry): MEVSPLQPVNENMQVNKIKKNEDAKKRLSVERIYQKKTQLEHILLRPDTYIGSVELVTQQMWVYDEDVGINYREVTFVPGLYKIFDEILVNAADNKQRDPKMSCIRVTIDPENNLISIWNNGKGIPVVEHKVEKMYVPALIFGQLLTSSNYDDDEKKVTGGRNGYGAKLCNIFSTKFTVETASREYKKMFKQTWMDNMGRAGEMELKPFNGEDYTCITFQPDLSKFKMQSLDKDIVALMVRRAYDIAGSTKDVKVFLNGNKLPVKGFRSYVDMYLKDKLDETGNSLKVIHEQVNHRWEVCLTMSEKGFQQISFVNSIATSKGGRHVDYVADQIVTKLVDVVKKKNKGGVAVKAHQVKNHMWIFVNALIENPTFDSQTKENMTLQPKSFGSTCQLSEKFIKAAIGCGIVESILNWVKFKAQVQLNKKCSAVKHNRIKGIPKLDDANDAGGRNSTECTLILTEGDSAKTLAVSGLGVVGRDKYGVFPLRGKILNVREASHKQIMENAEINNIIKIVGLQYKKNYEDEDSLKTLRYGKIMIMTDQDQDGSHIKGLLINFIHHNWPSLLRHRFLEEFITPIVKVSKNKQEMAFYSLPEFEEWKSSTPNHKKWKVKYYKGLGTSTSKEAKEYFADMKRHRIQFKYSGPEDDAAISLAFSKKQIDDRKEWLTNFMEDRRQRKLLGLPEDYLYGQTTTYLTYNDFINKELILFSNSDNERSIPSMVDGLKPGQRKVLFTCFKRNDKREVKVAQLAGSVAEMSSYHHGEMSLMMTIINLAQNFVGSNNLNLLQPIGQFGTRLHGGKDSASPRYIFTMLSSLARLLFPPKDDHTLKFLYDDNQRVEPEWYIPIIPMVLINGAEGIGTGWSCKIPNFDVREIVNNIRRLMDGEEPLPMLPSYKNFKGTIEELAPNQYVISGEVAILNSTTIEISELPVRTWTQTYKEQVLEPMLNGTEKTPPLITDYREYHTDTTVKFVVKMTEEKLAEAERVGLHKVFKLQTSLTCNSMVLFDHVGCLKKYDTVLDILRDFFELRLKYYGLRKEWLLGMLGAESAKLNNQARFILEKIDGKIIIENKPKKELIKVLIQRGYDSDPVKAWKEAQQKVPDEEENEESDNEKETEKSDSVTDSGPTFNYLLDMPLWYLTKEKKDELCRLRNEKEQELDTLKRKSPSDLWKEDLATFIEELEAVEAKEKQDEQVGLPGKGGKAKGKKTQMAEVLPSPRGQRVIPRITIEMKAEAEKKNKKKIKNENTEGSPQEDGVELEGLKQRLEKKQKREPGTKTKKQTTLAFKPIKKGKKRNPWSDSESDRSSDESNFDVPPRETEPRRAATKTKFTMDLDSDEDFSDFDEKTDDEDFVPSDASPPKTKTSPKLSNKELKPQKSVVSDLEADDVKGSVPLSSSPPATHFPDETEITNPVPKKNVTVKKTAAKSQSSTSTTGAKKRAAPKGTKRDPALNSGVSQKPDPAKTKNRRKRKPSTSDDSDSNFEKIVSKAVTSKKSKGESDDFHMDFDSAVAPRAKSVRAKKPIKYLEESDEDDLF
Method: (§1) Figure 2 T637 and T638 are TOP2A inhibitors. (A) K-DNA decatenation assays and (B) supercoiled plasmid DNA relaxation assays are used to measure TOP2A enzyme activity in the presence of 0.01–200 uM T637 or T638. Three biological repeats were performed with each concentration of the compounds, and the densitometry of the D-DNA bands from (A) and the SC bands from (B) was used to establish an inhibition curve for IC50 calculation.

[3] = molecular target: T1, TOP2A; test: Supercoiled plasmid DNA relaxation assay, TOP2A; type: biochemical; conditions: 0.01-200 uM, three biological repeats
Method: as §1

[4] = molecular target: T2, TOP2B (Homo sapiens, UniProt Q02880); test: K-DNA decatenation assay, TOP2B; type: biochemical; conditions: 0.01-200 uM, three biological repeats
T2 sequence (Q02880 whole entry): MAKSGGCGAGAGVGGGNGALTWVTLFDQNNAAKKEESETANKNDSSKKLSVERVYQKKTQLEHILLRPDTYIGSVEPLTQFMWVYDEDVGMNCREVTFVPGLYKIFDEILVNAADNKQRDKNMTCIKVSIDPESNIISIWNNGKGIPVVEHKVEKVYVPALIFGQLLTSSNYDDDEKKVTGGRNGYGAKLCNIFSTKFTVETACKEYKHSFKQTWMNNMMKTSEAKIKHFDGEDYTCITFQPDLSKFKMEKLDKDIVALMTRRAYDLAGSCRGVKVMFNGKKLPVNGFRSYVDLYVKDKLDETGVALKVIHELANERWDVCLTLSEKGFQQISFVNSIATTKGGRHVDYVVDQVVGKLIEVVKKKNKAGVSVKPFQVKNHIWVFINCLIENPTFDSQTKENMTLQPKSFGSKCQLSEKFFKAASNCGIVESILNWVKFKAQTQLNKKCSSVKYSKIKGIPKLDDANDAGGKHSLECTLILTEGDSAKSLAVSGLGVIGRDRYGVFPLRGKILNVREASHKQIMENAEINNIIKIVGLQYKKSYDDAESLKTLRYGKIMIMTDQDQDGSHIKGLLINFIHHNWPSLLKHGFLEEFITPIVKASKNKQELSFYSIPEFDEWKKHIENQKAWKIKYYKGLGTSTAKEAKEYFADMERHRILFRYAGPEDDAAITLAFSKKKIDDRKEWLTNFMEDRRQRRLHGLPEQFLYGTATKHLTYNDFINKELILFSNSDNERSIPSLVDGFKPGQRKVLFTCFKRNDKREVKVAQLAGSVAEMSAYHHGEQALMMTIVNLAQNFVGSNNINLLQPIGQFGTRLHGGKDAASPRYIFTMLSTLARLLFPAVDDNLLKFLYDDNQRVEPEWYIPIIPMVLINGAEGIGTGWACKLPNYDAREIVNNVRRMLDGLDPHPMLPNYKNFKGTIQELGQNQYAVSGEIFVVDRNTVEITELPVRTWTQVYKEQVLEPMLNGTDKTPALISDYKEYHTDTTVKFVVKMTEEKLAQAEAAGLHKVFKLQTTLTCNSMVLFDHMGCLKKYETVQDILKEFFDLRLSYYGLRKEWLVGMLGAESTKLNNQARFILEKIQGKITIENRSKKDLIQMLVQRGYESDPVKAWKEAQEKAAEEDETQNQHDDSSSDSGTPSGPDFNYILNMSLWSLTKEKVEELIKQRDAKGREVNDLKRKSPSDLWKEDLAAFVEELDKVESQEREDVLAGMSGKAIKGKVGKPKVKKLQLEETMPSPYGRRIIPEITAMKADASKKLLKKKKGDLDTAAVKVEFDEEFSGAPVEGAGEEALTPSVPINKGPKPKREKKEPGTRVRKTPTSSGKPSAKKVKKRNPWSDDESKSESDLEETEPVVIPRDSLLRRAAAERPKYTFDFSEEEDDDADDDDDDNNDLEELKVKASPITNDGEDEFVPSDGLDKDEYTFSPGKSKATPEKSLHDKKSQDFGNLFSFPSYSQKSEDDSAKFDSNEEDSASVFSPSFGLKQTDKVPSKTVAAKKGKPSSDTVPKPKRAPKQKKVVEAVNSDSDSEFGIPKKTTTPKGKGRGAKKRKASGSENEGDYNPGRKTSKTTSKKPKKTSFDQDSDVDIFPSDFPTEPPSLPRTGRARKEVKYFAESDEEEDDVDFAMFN
Method: (§2) Figure 3 T637 and T638 are TOP2B inhibitors. (A) K-DNA decatenation assays and (B) supercoiled plasmid DNA relaxation assays are used to measure TOP2B activity in the presence of 0.01–200 uM T637 or T638. Three biological repeats were performed with each concentration of the compounds, and the densitometry of the D-DNA bands from (A) and the SC bands from (B) was used to establish an inhibition curve for IC50 calculation.

[5] = molecular target: T2, TOP2B; test: Supercoiled plasmid DNA relaxation assay, TOP2B; type: biochemical; conditions: 0.01-200 uM, three biological repeats
Method: as §2

[6] = system: salmon sperm DNA; test: Ethidium bromide displacement assay; type: binding; conditions: 100 µg/mL salmon sperm DNA, 2 µg/mL ethidium bromide
Method: (§3) (A) Ethidium bromide displacement assays were performed by mixing 100 µg/mL salmon sperm DNA with −/+2 µg/mL ethidium bromide and the indicated compounds. Reactions were subjected to fluorescence emission of 590 nm and excitation of 535 nm. Obtained signals were detected by using the Multimode Microplate Reader (Infinite F500). […] Reactions were subjected to 5–20% LED/excitation power and medium MST power using premium capillaries. Obtained signals were detected by using the Monolith NT.115 system. The change in thermophoresis is expressed as the change in the normalized fluorescence (ΔFnorm). MST assays were repeated with two control compounds, enzalutamide (Enza) and merbarone.

[7] = molecular target: T3, human TOP2A(431-1193) (Homo sapiens, UniProt P11388); test: EMSA, TOP2A(431-1193) with 5ZRF DNA oligo; type: binding; conditions: 2 uM protein, 300 nM oligo
T3 construct: 6xHis (N); made in house; host or cells: E. coli BL21 (DE3)
T3 sequence (P11388 431-1193): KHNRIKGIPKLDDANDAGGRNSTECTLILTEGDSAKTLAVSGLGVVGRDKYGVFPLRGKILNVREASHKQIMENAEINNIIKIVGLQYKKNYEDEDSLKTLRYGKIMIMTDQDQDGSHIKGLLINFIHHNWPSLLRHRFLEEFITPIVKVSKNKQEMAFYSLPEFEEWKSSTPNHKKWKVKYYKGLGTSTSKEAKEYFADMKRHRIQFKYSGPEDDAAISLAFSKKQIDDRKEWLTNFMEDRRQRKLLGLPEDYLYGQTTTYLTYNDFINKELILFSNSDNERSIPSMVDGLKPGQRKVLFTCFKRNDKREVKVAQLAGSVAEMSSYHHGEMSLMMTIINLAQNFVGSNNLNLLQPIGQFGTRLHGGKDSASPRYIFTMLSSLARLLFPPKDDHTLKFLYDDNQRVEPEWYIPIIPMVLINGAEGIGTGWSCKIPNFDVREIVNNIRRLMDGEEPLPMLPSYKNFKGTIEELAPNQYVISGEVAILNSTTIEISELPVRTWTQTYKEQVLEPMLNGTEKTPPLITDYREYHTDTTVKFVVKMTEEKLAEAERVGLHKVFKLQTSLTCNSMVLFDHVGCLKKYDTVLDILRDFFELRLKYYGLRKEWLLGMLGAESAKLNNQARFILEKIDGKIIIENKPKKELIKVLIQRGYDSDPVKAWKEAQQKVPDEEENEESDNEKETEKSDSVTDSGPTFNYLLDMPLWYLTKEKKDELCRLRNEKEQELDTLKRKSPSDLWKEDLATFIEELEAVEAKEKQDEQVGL

[8] = molecular target: T3, human TOP2A(431-1193); test: Fluorescence polarization (FP) assay of TOP2A-DNA interaction; type: binding; conditions: 500 nM protein, 0.01-200 µM compound
Method: Fluorescent polarization assay was performed in Corning® Low Volume 384-well Black Flat Bottom microplate. […] Triplicate reactions were transferred onto the microplate and incubated at room temperature for 20 min. Fluorescence polarization (FP) measurements were taken by Tecan Infinite F500 with the excitation wavelength of 485 nm and emission wavelength of 535 nm.
(§4) (A) EMSA was performed by purified full-length TOP2A or TOP2B proteins at a contraction of 300 nM with IRDay700 labeled 5ZRF DNA oligo at a concentration of 100 nM in the presence of −/+200 µM of ICRF193, T60, T637, and T638. […] Reactions were subjected to fluorescence […], which were detected by using the Multimode Microplate Reader (Infinite F500). (D) DNA cleavage assays were performed using full-length human TOP2A and TOP2B incubated with the supercoiled pHOT plasmid in the presence of 200 µM of etoposide plus 1, 100, or 200 µM of ICRF193, T60, T637, and T638. Reactions were separated on a DNA gel with ethidium bromide. All experiments were repeated three times, and one representative image was shown. Note: N, nicked DNA; L, linear DNA; and SC, supercoiled DNA.

[9] = Crystal formation (precipitation) in cell cultures; type: physicochemical
Method: Both T637 and T638 have improved solubility in aqueous solution and culture media compared to T60 (Figure 1). […] When cells are growing in the culture media and treated with T60 at concentrations ≥50 uM for two days, T60 will form crystals, likely due to the altered pH values by the cells that induce T60 precipitation. […] These improvements in solubility allow higher doses of compounds to be used to treat cancer cells to reach maximum tumor suppression.

[10] = in vitro; conditions: mouse, liver microsomes, pH 7.4
Method: The reaction was initiated by adding NADPH, followed by incubation at 37 °C. […] The samples were then vortexed and centrifuged at 16,000 rpm for 10 min at 4 °C. The supernatants were collected and analyzed by LC/MS/MS to determine the remaining percentage and the half-life (t1/2) by integrating compound peaks and fitting the resulting AUC values and time points to a one-phase decay equation.

[11] = system: K562 cells; test: Cytotoxicity by LDH release; conditions: for Cytotoxicity (LDH release), in words: K562, 0-20 uM, 48 h
Method: (§5) (A) K562 cells were treated with 0, 0.5, 1, 5, 10, 15, and 20 uM of T60 or 0, 0.5, 1, 5, 10, 15, 20, 50, and 100 uM of T637 and T638 for 24, 48, or 72 h. […] (B) NCI-H446 small cell lung cancer line and Hela cervical cancer line were treated with 0, 0.5, 1, 5, 10, 15, and 20 uM of T60 or 0, 0.5, 1, 5, 10, 15, 20, 50, and 100 uM of T637 and T638 for five days. Cell growth rates were measured by using Incucyte^TM. (C) K562 cells were treated with 0, 5, 10, 15, and 20 uM of T60, T637, or T638 for 48 h. Cytotoxicity was evaluated by measuring the LDH levels from the culture media. (D) K562 cells were treated with the vehicle or 10–20 µM of etoposide, T60, T637, or T638 for 4 h. Immunoblotting measured p-H2AXγ levels in cells with vinculin as a loading control.

[12] = system: K562 leukemia cells; test: K562 cell proliferation (MTS assay); conditions: for inhibition at 20 µM: Homo sapiens, read-out: Maximum cell proliferation inhibition; for Maximum cell proliferation inhibition: K562, up to 100 uM
Method: as §5

[13] = molecular target: T4, full-length TOP2A (Homo sapiens, UniProt P11388); test: EMSA, full-length TOP2A with 5ZRF DNA oligo; type: binding; parameters: EMSA was performed by purified full-length TOP2A or TOP2B proteins; conditions: 200 µM compound, 300 nM protein, 100 nM oligo
T4 sequence (P11388 whole entry): as the sequence (P11388 whole entry) above
Method: as §4

[14] = molecular target: T5, full-length TOP2B (Homo sapiens, UniProt Q02880); test: EMSA, full-length TOP2B with 5ZRF DNA oligo; type: binding; parameters: EMSA was performed by purified full-length TOP2A or TOP2B proteins; conditions: 200 µM compound, 300 nM protein, 100 nM oligo
T5 sequence (Q02880 whole entry): as the sequence (Q02880 whole entry) above
Method: as §4

[15] = system: K562 cells; test: Immunoblotting of p-H2AXγ (DNA damage); conditions: K562, 10-20 µM, 4 h
Method: as §5

[16] = molecular target: T4, full-length TOP2A; test: DNA cleavage assay, TOP2A; type: biochemical; parameters: DNA cleavage assays were performed using full-length human TOP2A and TOP2B; conditions: 200 µM etoposide plus 1, 100 or 200 µM compound, pHOT plasmid
Method: as §4

[17] = molecular target: T5, full-length TOP2B; test: DNA cleavage assay, TOP2B; type: biochemical; parameters: DNA cleavage assays were performed using full-length human TOP2A and TOP2B; conditions: 200 µM etoposide plus 1, 100 or 200 µM compound, pHOT plasmid
Method: as §4

[18] = molecular target: T3, human TOP2A(431-1193); test: Microscale thermophoresis (MST) binding assay; conditions: 5 nM NT647-labelled TOP2A(431-1193)
Method: It was transformed into BL21 (DE3) E. coli cells and induced by 0.5 mM IPTG for 16 h at 16 °C. Cells were lysed by sonication and protein purification was by chromatography with the Ni-NTA beads (Invitrogen), followed by a size exclusion chromatography (Superdex 200). […] A serial dilution of the inhibitors was prepared with 100% DMSO and subsequently mixed with the labeled fluorescent protein in the assay buffer (20 mM Tris pH 8.0, 100 mM NaCl, 0.1% NP40, 0.2 mM TCEP, and 0.1 mM PMSF) at the final concentrations of 0.015–500 uM. The final concentration of the protein was 5 nM. The labeled protein and small molecules mix were allowed to incubate in the dark at room temperature for 5 min before filling the capillaries. MST assays were performed with 5–20% LED/excitation power and medium MST power using premium capillaries for Monolith NT.115. The data for the estimation of Kd were analyzed using MO Affinity Analysis software from Nanotemper.
as §3

[19] = RPMI1640 plus 5% charcoal-stripped serum, plasma or biological fluid, cell culture media with serum, read-out: Solubility Media/FBS
[20] = methanol, organic solvent or mixture, methanol, read-out: Solubility Methanol
[21] = phosphate-buffered saline, aqueous buffer, PBS, read-out: Solubility PBS

Row | SMILES | solubility at 1 h [1, 19] [µM] | solubility at 1 h [1, 20] [µM] | solubility at 1 h [1, 21] [µM] | IC50 [2] [µM] | IC50 [3] [µM] | IC50 [4] [µM] | IC50 [5] [µM] | Fluorescence induced by the ethidium bromide/DNA complex reduced by increasing doses (DNA intercalation) [6] | Inhibition of TOP2A(431-1193)-DNA interaction (EMSA) [7] | Effect on TOP2A-DNA interaction (FP) [8] | half-life at 1 uM [10] [min] | microsomal CLint at 1 uM [10] [µL/min/mg] | Cytotoxicity (LDH release), in words [11] | Block of TOP2A-DNA oligo complex formation (EMSA) [13] | Block of TOP2B-DNA oligo complex formation (EMSA) [14] | also measured
1 | O=C(Nc1ccc(Nc2ccccc2)cc1)c1ccc[nH]c1=S [T60] | 206 | > 1000 | 5.8 (≈ 1.86 µg/mL) | ~0.3 | 4.7 | ~3.1 | ~8.9 | not | inhibited TOP2A–DNA interaction dose-dependently | reduced the TOP2A–DNA interaction in a dose-dependent manner | 51 | 46 | not observed | block | block | Solubility Media/FBS ([1]; cell culture media with serum): ~ 200 uM; Concentration at which the compound forms crystals in culture media with growing cells ([9]; cells treated for two days): ≥ 50 µM; inhibition at 20 µM ([12]; K562, 24 h): ~38%; inhibition at 20 µM ([12]; K562, 48 h): 71%; inhibition at 20 µM ([12]; K562, 72 h): 86%
2 | CC(=O)Nc1cc(Nc2ccccc2)ccc1NC(=O)c1ccc[nH]c1=S [T637] | 707 | > 1000 | 20 (≈ 7.57 µg/mL) | ~1.4 | 16.8 | ~8.9 | ~18.6 | not | inhibited TOP2A–DNA interaction dose-dependently | reduced the TOP2A–DNA interaction in a dose-dependent manner | 20 | 116 | not observed | block | block | Crystal formation in cell cultures, in words ([9]; up to 100 uM): no crystal formation; Maximum cell proliferation inhibition ([12]; 48 h): 100%; Maximum cell proliferation inhibition ([12]; 72 h): 100%; Intracellular DNA damage (phospho-H2AXγ protein levels) [15]: do not cause intracellular DNA damage; Prevention of etoposide-induced DNA cleavage, TOP2A [16]: did prevent etoposide-induced DNA cleavage; Prevention of etoposide-induced DNA cleavage, TOP2B [17]: did prevent etoposide-induced DNA cleavage
3 | CNC(=O)c1ccc(N2C(=S)N(c3ccc(C#N)c(C(F)(F)F)c3)C(=O)C2(C)C)cc1F [enzalutamide] | – | – | – | – | – | – | – | – | – | – | – | – | – | – | – | Binding to TOP2A(431-1193) by MST (change of thermophoresis), in words [18]: no alteration of thermophoresis
4 | COc1cc([C@@H]2c3cc4c(cc3[C@@H](O[C@@H]3O[C@@H]5CO[C@@H](C)O[C@H]5[C@H](O)[C@H]3O)[C@H]3COC(=O)[C@H]23)OCO4)cc(OC)c1O [etoposide, reference compound] | – | – | – | – | – | – | – | – | – | – | – | – | – | – | – | Cytotoxicity (LDH release) ([11]; K562, 20 uM, two days): up to 70%
